# Measured values from patent US9359317B2, “Small molecule inhibitors of HIV proteases” (Purdue Research Foundation, priority 2008, dated 2016).
# Target: HIV Protease (Human immunodeficiency virus type 1 group M subtype B, UniProt P04585)
# Test: Inhibition of HIV Protease
# Format: biochemical
# [1] = Table 1, Inhibition of HIV Protease by compounds of formula drawing 46
Structure (SMILES),Ki [1] [nM],"Ki (Table 2, Inhibition of HIV Protease) [nM]"
CC=CC1OC(c2ccccc2)CC1C(NS(=O)(=O)c1ccc(C)cc1)C(=O)O (stereo not shown) [compound 33],> 1000,
Cc1ccc(S(=O)(=O)NC(C(=O)O)C2CC(c3ccc4ccccc4c3)OC2CC(O)c2ccccc2)cc1 (stereo not shown) [compound 26],150,
Cc1ccc(S(=O)(=O)NC(C(=O)O)C2CC(c3ccccc3)OC2CC(O)CO)cc1 (stereo not shown) [compound 22],27,
COc1ccc(S(=O)(=O)NC(C(=O)O)C2CC3Cc4cc(OC)ccc4C2O3)cc1 (stereo not shown) [compound 2],,> 1000
C=CCC1OC(c2ccccc2)CC1C(NS(=O)(=O)c1ccc(C)cc1)C(=O)O (stereo not shown) [compound 25],> 1000,
Cc1ccc(S(=O)(=O)NC(C(=O)O)C2CC(c3ccccc3)OC2CC(O)c2ccccc2)cc1 (stereo not shown) [compound 21],4,
C=CCC1OC(c2ccccc2)CC1C(NS(=O)(=O)c1ccc(F)cc1)C(=O)O (stereo not shown) [compound 18],> 1000,
